The source of these data is patent US4837221A, “Methods of treating tumors susceptible to necrosis” (Efamol Ltd., priority 1984, dated 1989).

Where “and” joins values, the source holds several entries; their conditions need not be identical. Identical values can stand only once. Entries after “also recorded” stand apart in the source; their conditions may differ.

In data set [1] the test system is transplantable mouse tumour originating in plasma cells. Put plainly: Depth of tumour necrosis after photosensitising drug and illumination (10J/cm^2) in mice. It is filed as in vivo. As to conditions: for Necrosis (after 10J/cm^2), depth: ± S.E.M.
Data set [2] shares this test system. The data set is described as above. As to conditions: for Depths of tumour necrosis: 10J/cm^2 at 660nm, individual values; for effectiveness in DMSO versus alkali (in words): DMSO compared with alkali (NaOH); for effectiveness as photosensitiser for tumour tissue (in words): mouse assay. It is filed as in vivo. The procedure: The photosensitising drug is given intravenously in aqueous medium or intraperitoneally in DMSO, the tumour exposed to light at the appropriate wavelength and the depth of tumour necrosis measured. […] Results are shown in graph. The relative potency is determined by comparing amounts of drugs required to produce equal effects.
A preliminary comparison was made. […] The light dose was 10J/cm^2 at 660nm.

A further data set relates to depilated skin. The data set is described as follows: Skin photosensitisation: increase in skin thickness after illumination. It is filed as in vivo, mouse. The procedure: The increase in skin thickness was measured 4 hours after illumination.
The test system of another data set is brain vascular lining. Put plainly: Cerebral photosensitisation: Evans blue in the brain after white light to the cranium. It is filed as in vivo, mouse. As to conditions: 0.033 μM/kg i.v., 20J/cm^2 white light; dye 4 hours after exposure, measured 1 hour later; groups of 5 mice. How it is done: Normally, very little is found, and this is largely dye still circulating in the blood 1 hour after injection, and not in the brain substance itself. An increase is produced by agents that damage the brain vascular lining, allowing dye to enter the brain substance.

In the next data set the test system is cranium (brain) of mice. The data set is described as follows: Cerebral photosensitisation: deaths within 48 hours after white light to the cranium. It is filed as in vivo, mouse. As to conditions: 0.033 μM/kg i.v., 24 hours later 20J/cm^2 white light to cranium. How it is done:
Deaths within 48 hours (due to acute cerebral oedema) were: […]

The nature of another data set: Solubility. The class given is physicochemical.

Consider `Oc1ccc(-c2c3nc(c(-c4ccc(O)cc4)c4ccc([nH]4)c(-c4ccc(O)cc4)c4nc(c(-c5ccc(O)cc5)c5ccc2[nH]5)C=C4)C=C3)cc1` [K-HK7], for which the “Necrosis (after 10J/cm^2), depth” value in data set [1] (12.5 μM/kg, DMSO, 656 nm) was 2.50 ± 0.44 mm; in data set [1] (25 μM/kg, DMSO, 656 nm) it was 3.32 ± 0.59 mm; in data set [1] (50 μM/kg, NaOH, 654 nm), 5.06 ± 0.12 mm.

With `Oc1ccc(-c2c3nc(c(-c4ccc(O)cc4)c4ccc([nH]4)c(-c4ccc(O)cc4)c4nc(c(-c5ccc(O)cc5)c5ccc2[nH]5)C=C4)C=C3)cc1` [HK7, 5,10,15,20-tetra (4-hydroxyphenyl) porphyrin], the “Depths of tumour necrosis” value in data set [2] (33 μM/kg, NaOH-DMSO) was 0.5 mm and 1.5 mm and 4.5 mm; in data set [2] (67 μM/kg, DMSO), 4 mm and 5 mm and 6 mm. Besides, the “effectiveness in DMSO versus alkali (in words)” value in data set [2] was “rather more effective administered in DMSO than in alkali”. For the same compound, the “effectiveness as photosensitiser for tumour tissue (in words)” value in data set [2] is listed as “more effective photosensitiser for tumour tissue in animal assay than is HpD”. The “Necrosis (after 10J/cm^2), depth” value was 1.17 ± 0.31 mm and 0.85 ± 0.38 mm in data set [1] (6.25 μM/kg, DMSO, 656 nm); 2.86 ± 0.26 mm and 2.50 ± 0.52 mm in data set [1] (12.5 μM/kg, DMSO, 656 nm); 2.40 ± 0.10 mm in data set [1] (12.5 μM/kg, NaOH, 654 nm); 3.54 ± 0.48 mm and 2.63 ± 0.56 mm in data set [1] (25 μM/kg, DMSO, 656 nm); 3.64 ± 0.39 mm in data set [1] (25 μM/kg, NaOH, 654 nm); 2.75 ± 0.25 mm and 2.38 ± 0.24 mm in data set [1] (25 μM/kg, NaOH, 669 nm). Moreover, the “Necrosis (after 10J/cm^2), depth” value is 5.06 ± 0.48 mm in data set [1] (50 μM/kg, DMSO, 656 nm); 3.32 ± 0.63 mm and 3.25 ± 0.37 mm in data set [1] (50 μM/kg, NaOH, 669 nm). Also, the “effectiveness in tumour necrosis (in words)” value in data set [1] (6.25 μm/kg) is on record as “reasonably effective”. Moreover, the “tumour sensitisation at the dose of the cerebral test (in words)” value in data set [1] (24 hours after dose, see graph) is “substantial tumour sensitisation”. For the same compound, in data set [1] (i.v., 10J/cm^2, 630nm HpD, 658nm HK7), the “amount of drug required to produce equal effect (HK7 vs HpD)” value is approximately 0.0125 µM/kg. Further, the “skin photosensitisation, by 1 week” value with depilated skin (1 week, equimolar doses, 10J/cm^2, HK7 vs HpD) was “little difference”. The “skin photosensitisation, by 2 weeks” value in the data set on depilated skin (2 weeks, maximum dose, 10J/cm^2) is given as “no longer sensitises to this dose of light”. The “skin photosensitisation, 1 day after porphyrin injection” value with depilated skin (1 day, equimolar doses, 10J/cm^2 (625nm HpD, 656nm HK7)) is reported as “more potent skin sensitiser than HpD”. Moreover, the “skin photosensitisation, potency and persistence” value in the data set with depilated skin (HK7 compared with HpD, overall) is “less persistant than that caused by HpD; also recorded: more potent skin photosensitiser than HpD, but that the effect is more transient”. For the same compound, in the data set with brain vascular lining, the “amount of Evans blue in the brain” value is given as 23.6 ± 3.65 μg dye/brain. Also, the “Deaths within 48 hours (due to acute cerebral oedema)” value with cranium (brain) of mice is 0/5. The “solubility in neutral aqueous media” value in “Solubility” is reported as “relatively insoluble in neutral aqueous media”.

Turning to `O=S(=O)(O)c1ccc(-c2c3nc(c(-c4ccc(S(=O)(=O)O)cc4)c4ccc([nH]4)c(-c4ccc(S(=O)(=O)O)cc4)c4nc(c(-c5ccc(S(=O)(=O)O)cc5)c5ccc2[nH]5)C=C4)C=C3)cc1` [tetra-(p-hydroxysulphonyl phenyl) porphyrin, reference compound], the necrosis depth in data set [1] (molar equivalent dose to HpD 67 μmol/kg, saline, 550 nm) was 0.30±0.11 mm.

On to `Oc1ccc(-c2c3nc(c(-c4ccc(O)cc4)c4ccc([nH]4)c(-c4ccc(O)cc4)c4nc(c(-c5ccc(O)cc5)c5ccc2[nH]5)C=C4)C=C3)cc1` [Na-HK7], for which the “Necrosis (after 10J/cm^2), depth” value was 2.28 ± 0.47 mm in data set [1] (25 μM/kg, DMSO, 656 nm); 2.80 ± 0.12 mm and 3.79 ± 0.29 mm in data set [1] (50 μM/kg, DMSO, 656 nm); 3.15 ± 0.83 mm in data set [1] (50 μM/kg, NaOH, 664 nm). For the same compound, the necrosis depth result in data set [1] (12.5 μm/kg) is “below 1.0 mm”.

With `Oc1cccc(-c2c3nc(c(-c4cccc(O)c4)c4ccc([nH]4)c(-c4cccc(O)c4)c4nc(c(-c5cccc(O)c5)c5ccc2[nH]5)C=C4)C=C3)c1` [meta-HK7], the “effectiveness in DMSO versus alkali (in words)” value in data set [2] is recorded as “equally effective in both”. Further, the “effectiveness as photosensitiser for tumour tissue (in words)” value in data set [2] is listed as “most active compound found”. Besides, the “Necrosis (after 10J/cm^2), depth” value in data set [1] (1.56 μM/kg, DMSO, 648 nm) is 0.65 ± 0.22 mm; in data set [1] (6.25 μM/kg, DMSO, 648 nm) it was 3.53 ± 0.49 mm and 2.88 ± 0.9 mm and 3.86 ± 0.18 mm; in data set [1] (6.25 μM/kg, NaOH, 648 nm) it was 3.78 ± 0.36 mm and 3.64 ± 0.34 mm; in data set [1] (12.5 μM/kg, DMSO, 648 nm), 4.44 ± 0.35 mm and 4.5 ± 0.5 mm; in data set [1] (12.5 μM/kg, NaOH, 648 nm), 3.25 ± 0.33 mm; in data set [1] (25.0 μM/kg, DMSO, 648 nm), 5.37 ± 0.55 mm. Moreover, in data set [1] (50.0 μM/kg, DMSO, 648 nm), the “Necrosis (after 10J/cm^2), depth” value is recorded as 4.63 ± 0.64 mm. In addition, the “effectiveness in tumour necrosis (in words)” value in data set [1] (1.56 μm/kg) is “some effect”; in data set [1] (3.12 μm/kg) it was “effective”.

`Oc1ccc(-c2c3nc(c(-c4ccc(O)cc4)c4ccc([nH]4)c(-c4ccc(O)cc4)c4nc(c(-c5ccc(O)cc5)c5ccc2[nH]5)C=C4)C=C3)cc1` [Li-HK7]: the “Necrosis (after 10J/cm^2), depth” value in data set [1] (25 μM/kg, DMSO, 656 nm) was 3.31 ± 0.40 mm and 3.00 ± 0.72 mm and 3.00 ± 0.51 mm; in data set [1] (50 μM/kg, DMSO, 656 nm) it was 2.46 ± 0.38 mm and 3.50 ± 0.41 mm. Also, the necrosis depth result in data set [1] (12.5 μm/kg) is “below 1.0 mm”.

Turning to `Oc1ccccc1-c1c2nc(c(-c3ccccc3O)c3ccc([nH]3)c(-c3ccccc3O)c3nc(c(-c4ccccc4O)c4ccc1[nH]4)C=C3)C=C2` [ortho-HK7, 5,10,15,20-TETRA(o-HYDROXYPHENYL) PORPHYRIN], the “Necrosis (after 10J/cm^2), depth” value in data set [1] (6.25 μM/kg, DMSO, 648 nm) is 2.45 ± 0.28 mm; in data set [1] (12.5 μM/kg, DMSO, 648 nm) it was 3.03 ± 0.29 mm; in data set [1] (25.0 μM/kg, DMSO, 648 nm), 4.21 ± 0.32 mm and 3.21 ± 0.56 mm; in data set [1] (50.0 μM/kg, DMSO, 648 nm), 4.25 ± 0.50 mm.

For the compound `Oc1ccc(-c2c3nc(c(-c4ccc(O)cc4)c4ccc([nH]4)c(-c4ccc(O)cc4)c4nc(c(-c5ccc(O)cc5)c5ccc2[nH]5)C=C4)C=C3)cc1` [HK7.4EtOH], the “Depths of tumour necrosis” value was 0.25 mm and 0.5 mm and 0.75 mm and 2 mm in data set [2] (33 μM/kg, NaOH-DMSO); 3.75 mm and 4 mm (2×) and 5 mm in data set [2] (67 μM/kg, DMSO).
